IC50 data for 24 compounds are collected here from US8623859B2, “Bradykinin B1 antagonists” (Evotec AG, priority 2008, dated 2014).

Structures can show the parent of a compound that is named as a salt.

The target of the test is T1, human B1 (Homo sapiens, UniProt P46663).
T1 construct: host or cells: CHO-K1
T1 sequence (P46663 1-353): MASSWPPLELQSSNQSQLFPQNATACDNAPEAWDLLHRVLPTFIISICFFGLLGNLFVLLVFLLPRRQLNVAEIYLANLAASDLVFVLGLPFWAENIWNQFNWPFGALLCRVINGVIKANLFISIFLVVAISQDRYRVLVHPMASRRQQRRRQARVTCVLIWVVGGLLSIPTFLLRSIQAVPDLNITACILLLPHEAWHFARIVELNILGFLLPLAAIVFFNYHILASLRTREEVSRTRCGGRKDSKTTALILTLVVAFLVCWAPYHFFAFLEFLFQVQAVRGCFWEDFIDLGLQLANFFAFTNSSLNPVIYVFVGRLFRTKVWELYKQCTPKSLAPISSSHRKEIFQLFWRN
In words: Calcium flux assay for Bradykinin B1 antagonist, CHO-K1 cell line expressing human B1. The format is cell-based. To be noted: CHO-K1 cells expressing human B1, agonist Lys-(Des-Arg)-Bradykinin, read-out: Potency (IC50 value against human B1). The procedure, abridged:
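CHO-K1 cells expressing human B1, loaded with 5 μM Fluo-4AM (2 h, 37° C) in HEPES buffer pH 7.4 with probenecid and 0.1% BSA, were preincubated 30 min at 25° C with compound (8 concentrations, triplicate, 1% DMSO) before B1 agonist addition. Ca2+ fluorescence monitored at 538 nm; background-normalized integrated values plotted against log antagonist concentration.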
Background: Calcium flux is commonly read through the fluorescence of an indicator in the cells.
As to `COc1cc(C)c(S(=O)(=O)N(Cc2cc(C(=O)N3CCN(C4CC(C)(C)N(C)C(C)(C)C4)CC3)co2)C2CC2)c(C)c1` [Ex 108, N-Cyclopropyl-4-methoxy-2,6-dimethyl-N-[(4-{[4-(1,2,2,6,6-pentamethylpiperidin-4-yl)piperazin-1-yl]carbonyl}furan-2-yl)methyl]benzenesulfonamide trifluoroacetate], the IC50 (usually the midpoint of a concentration-inhibition curve) fell in the range of 100 to 1000 nM.

As to `COc1cc(C)c(S(=O)(=O)N(Cc2cc(C(=O)N3CCN(CCN4CCCCC4)CC3)co2)C2CC2)c(C)c1` [Ex 109, N-Cyclopropyl-4-methoxy-2,6-dimethyl-N-[(4-{[4-(2-piperidin-1-ylethyl)piperazin-1-yl]carbonyl}furan-2-yl)methyl]benzenesulfonamide trifluoroacetate], the IC50 was in the range of 100 to 1000 nM.

Take `COc1cc(C)c(S(=O)(=O)N(Cc2cc(C(=O)N3CCN(CCc4ccncc4)CC3)co2)C2CC2)c(C)c1` [Ex 110, N-Cyclopropyl-4-methoxy-2,6-dimethyl-N-[(4-{[4-(2-pyridin-4-ylethyl)piperazin-1-yl]carbonyl}furan-2-yl)methyl]benzenesulfonamide trifluoroacetate]: the IC50 lay in the range of 100 to 1000 nM.

Take `COc1cc(C)c(S(=O)(=O)N(Cc2cc(C(=O)N3CCN(Cc4cccnc4)CC3)co2)C2CC2)c(C)c1` [Ex 111, N-Cyclopropyl-4-methoxy-2,6-dimethyl-N-[(4-{[4-(pyridin-3-ylmethyl)piperazin-1-yl]carbonyl}furan-2-yl)methyl]benzenesulfonamide trifluoroacetate]: the IC50 fell in the range of 100 to 1000 nM.

Regarding `COc1cc(C)c(S(=O)(=O)N(Cc2cc(C(=O)N3CCN(CCN4CCCC4)CC3)co2)C2CC2)c(C)c1` [Ex 112, N-Cyclopropyl-4-methoxy-2,6-dimethyl-N-[(4-{[4-(2-pyrrolidin-1-ylethyl)piperazin-1-yl]carbonyl}furan-2-yl)methyl]benzenesulfonamide trifluoroacetate], the IC50 was in the range of 10 to 100 nM.

In the case of `CCN1CCN(CCNC(=O)c2coc(CN(C3CC3)S(=O)(=O)c3c(C)cc(OC)cc3C)c2)CC1` [Ex 113, 5-({Cyclopropyl[(4-methoxy-2,6-dimethylphenyl)sulfonyl]amino}methyl)-N-[2-(4-ethylpiperazin-1-yl)ethyl]furan-3-carboxamide trifluoroacetate], the IC50 lay within 100 to 1000 nM.

Regarding `COc1cc(C)c(S(=O)(=O)N(Cc2cc(C(=O)N3CCN(CCc4ccccn4)CC3)co2)C2CC2)c(C)c1` [Ex 114, N-Cyclopropyl-4-methoxy-2,6-dimethyl-N-[(4-{[4-(2-pyridin-2-ylethyl)piperazin-1-yl]carbonyl}furan-2-yl)methyl]benzenesulfonamide trifluoroacetate], the IC50 was 100 to 1000 nM.

Regarding `COc1cc(C)c(S(=O)(=O)N(Cc2cc(C(=O)N3CCN(CCCN4CCCC4)CC3)co2)C2CC2)c(C)c1` [Ex 115, N-Cyclopropyl-4-methoxy-2,6-dimethyl-N-[(4-{[4-(3-pyrrolidin-1-ylpropyl)piperazin-1-yl]carbonyl}furan-2-yl)methyl]benzenesulfonamide trifluoroacetate], the IC50 lay within 10 to 100 nM.

As for `COc1cc(C)c(S(=O)(=O)N(Cc2cc(C(=O)N3CCCN(CCCN4CCCC4)CC3)co2)C2CC2)c(C)c1` [Ex 116, N-Cyclopropyl-4-methoxy-2,6-dimethyl-N-[(4-{[4-(3-pyrrolidin-1-ylpropyl)-1,4-diazepan-1-yl]carbonyl}furan-2-yl)methyl]benzenesulfonamide trifluoroacetate], the IC50 is 10 to 100 nM.

Regarding `COc1cc(C)c(S(=O)(=O)N(Cc2cc(C(=O)N3CCN(CC(=O)Nc4cccnc4)CC3)co2)C2CC2)c(C)c1` [Ex 117, 2-(4-{[5-({Cyclopropyl[(4-methoxy-2,6-dimethylphenyl)sulfonyl]amino}methyl)furan-3-yl]carbonyl}piperazin-1-yl)-N-pyridin-3-ylacetamide trifluoroacetate], the IC50 was in the range of 100 to 1000 nM.

With `COc1cc(C)c(S(=O)(=O)N(Cc2cc(C(=O)N3CCN(CCCN(C)C)CC3)co2)C2CC2)c(C)c1` [Ex 118, N-Cyclopropyl-N-{[4-({4-[3-(dimethylamino)propyl]piperazin-1-yl}carbonyl)furan-2-yl]methyl}-4-methoxy-2,6-dimethylbenzenesulfonamide trifluoroacetate], the IC50 lay in the range of 10 to 100 nM.

Regarding `COc1cc(C)c(S(=O)(=O)N(Cc2cc(C(=O)N3CCC(N4CCN(C)CC4)CC3)co2)C2CC2)c(C)c1` [Ex 119, N-Cyclopropyl-4-methoxy-2,6-dimethyl-N-[(4-{[4-(4-methylpiperazin-1-yl)piperidin-1-yl]carbonyl}furan-2-yl)methyl]benzenesulfonamide trifluoroacetate], the IC50 was 100 to 1000 nM.

Regarding `COc1cc(C)c(S(=O)(=O)N(Cc2cc(C(=O)N3CCC(CCN4CCCC4)CC3)co2)C2CC2)c(C)c1` [Ex 120, N-Cyclopropyl-4-methoxy-2,6-dimethyl-N-[(4-{[4-(2-pyrrolidin-1-ylethyl)piperidin-1-yl]carbonyl}furan-2-yl)methyl]benzenesulfonamide trifluoroacetate], the IC50 was below 10 nM.

For `CCN(Cc1cc(C(=O)N(C)Cc2ccc(CN3CCCC3)cc2)co1)S(=O)(=O)c1c(Cl)cccc1Cl` [Ex 121, 5-({[(2,6-Dichlorophenyl)sulfonyl](ethyl)amino}methyl)-N-methyl-N-[4-(pyrrolidin-1-ylmethyl)benzyl]furan-3-carboxamide trifluoroacetate], the IC50 is 100 to 1000 nM.

For the compound `CCN(Cc1cc(C(=O)NCCc2ccc(C3=NCCN3)cc2)co1)S(=O)(=O)c1c(Cl)cccc1Cl` [Ex 122, 5-({[(2,6-Dichlorophenyl)sulfonyl](ethyl)amino}methyl)-N-{2-[4-(4,5-dihydro-1H-imidazol-2-yl)phenyl]ethyl}furan-3-carboxamide trifluoroacetate], the IC50 is 100 to 1000 nM.

Turning to `CN(Cc1ccc(C2=NCCN2)cc1)C(=O)c1coc(CN(C2CC2)S(=O)(=O)c2c(Cl)cc(Br)cc2Cl)c1` [Ex 123, 5-({[(4-Bromo-2,6-dichlorophenyl)sulfonyl](cyclopropyl)amino}methyl)-N-[4-(4,5-dihydro-1H-imidazol-2-yl)benzyl]-N-methylfuran-3-carboxamide trifluoroacetate], the IC50 is below 10 nM.

In the case of `CN(CCc1ccc(C2=NCCN2)cc1)C(=O)c1coc(CN(C2CC2)S(=O)(=O)c2c(Cl)cc(Br)cc2Cl)c1` [Ex 124, 5-({[(4-Bromo-2,6-dichlorophenyl)sulfonyl](cyclopropyl)amino}methyl)-N-{2-[4-(4,5-dihydro-1H-imidazol-2-yl)phenyl]ethyl}-N-methylfuran-3-carboxamide trifluoroacetate], the IC50 was below 10 nM.

On to `O=C(c1coc(CN(C2CC2)S(=O)(=O)c2c(Cl)cc(Br)cc2Cl)c1)N1CCCC(c2ccc(CN3CCCC3)cc2)C1` (stereo not drawn) [Ex 125, 4-Bromo-2,6-dichloro-N-cyclopropyl-N-{[4-({3-[4-(pyrrolidin-1-ylmethyl)phenyl]piperidin-1-yl}carbonyl)furan-2-yl]methyl}benzenesulfonamide trifluoroacetate], for which the IC50 lay in the range of 100 to 1000 nM.

Turning to `COc1cc(C)c(S(=O)(=O)N(C)Cc2cc(C(=O)N(C)Cc3ccc(CN4CCC(O)CC4)cc3)co2)c(C)c1` [Ex 126, N-{4-[(4-Hydroxypiperidin-1-yl)methyl]benzyl}-5-({[(4-methoxy-2,6-dimethylphenyl)sulfonyl](methyl)amino}methyl)-N-methylfuran-3-carboxamide], the IC50 was in the range of 10 to 100 nM.

For the compound `COc1cc(C)c(S(=O)(=O)N(C)Cc2cc(C(=O)N(C)Cc3ccc(CN4CCC(OC)CC4)cc3)co2)c(C)c1` [Ex 127, 5-({[(4-Methoxy-2,6-dimethylphenyl)sulfonyl](methyl)amino}methyl)-N-{4-[(4-methoxypiperidin-1-yl)methyl]benzyl}-N-methylfuran-3-carboxamide], the IC50 was in the range of 10 to 100 nM.

In the case of `COc1cc(C)c(S(=O)(=O)N(C)Cc2cc(C(=O)N(C)Cc3ccc(CN4CC(O)C4)cc3)co2)c(C)c1` [Ex 128, N-{4-[(3-Hydroxyazetidin-1-yl)methyl]benzyl}-5-({[(4-methoxy-2,6-dimethylphenyl)sulfonyl](methyl)amino}methyl)-N-methylfuran-3-carboxamide], the IC50 is 100 to 1000 nM.

For `COc1cc(C)c(S(=O)(=O)N(C)Cc2cc(C(=O)N(C)Cc3ccc(CN4CCC(OC)C4)cc3)co2)c(C)c1` (stereo not drawn) [Ex 129, 5-({[(4-Methoxy-2,6-dimethylphenyl)sulfonyl](methyl)amino}methyl)-N-{4-[(3-methoxypyrrolidin-1-yl)methyl]benzyl}-N-methylfuran-3-carboxamide], the IC50 is 100 to 1000 nM.

For `COc1cc(C)c(S(=O)(=O)N(C)Cc2cc(C(=O)N(C)Cc3ccc(CN4CCCC(OC)C4)cc3)co2)c(C)c1` (stereo not drawn) [Ex 130, 5-({[(4-Methoxy-2,6-dimethylphenyl)sulfonyl](methyl)amino}methyl)-N-{4-[(3-methoxypiperidin-1-yl)methyl]benzyl}-N-methylfuran-3-carboxamide], the IC50 is 100 to 1000 nM.

Regarding `COc1cc(C)c(S(=O)(=O)N(C)Cc2cc(C(=O)N(C)Cc3ccc(CN4CCC(C(=O)N(C)C)C4)cc3)co2)c(C)c1` (stereo not drawn) [Ex 131, 1-(4-{[{[5-({[(4-Methoxy-2,6-dimethylphenyl)sulfonyl](methyl)amino}methyl)furan-3-yl]carbonyl}(methyl)amino]methyl}benzyl)-N,N-dimethylpyrrolidine-3-carboxamide], the IC50 was in the range of 100 to 1000 nM.
